Source: ChEMBL document CHEMBL5058649, “Data for DCP probe BAY 1816032” (2022)

Legend:
[1] = target: 5-hydroxytryptamine receptor 3A (Homo sapiens) (UniProt P46098); conditions: Compound concentration 10.0 uM
[2] = target: Muscarinic acetylcholine receptor M4 (Homo sapiens) (UniProt P08173); conditions: Compound concentration 10.0 uM
[3] = target: T1, Alpha-2A adrenergic receptor (Homo sapiens) (UniProt P08913); conditions: Compound concentration 10.0 uM
T1 sequence (whole entry): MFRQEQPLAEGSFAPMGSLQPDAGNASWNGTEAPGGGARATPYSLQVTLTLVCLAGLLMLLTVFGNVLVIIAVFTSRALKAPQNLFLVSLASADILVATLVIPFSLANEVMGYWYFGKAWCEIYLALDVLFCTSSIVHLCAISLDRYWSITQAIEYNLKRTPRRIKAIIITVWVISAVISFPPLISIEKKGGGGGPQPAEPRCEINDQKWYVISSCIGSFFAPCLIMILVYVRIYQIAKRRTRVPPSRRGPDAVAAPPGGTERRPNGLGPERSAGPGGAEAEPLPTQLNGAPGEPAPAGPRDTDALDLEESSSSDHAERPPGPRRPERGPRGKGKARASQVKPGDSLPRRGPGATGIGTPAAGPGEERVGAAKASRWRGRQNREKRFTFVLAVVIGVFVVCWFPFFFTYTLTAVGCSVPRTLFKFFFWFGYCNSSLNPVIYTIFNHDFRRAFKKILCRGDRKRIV

[4] = target: Alpha-1A adrenergic receptor (Homo sapiens) (UniProt P35348); conditions: Compound concentration 10.0 uM
[5] = target: T2, Sigma non-opioid intracellular receptor 1 (Homo sapiens, UniProt Q99720); conditions: Compound concentration 10.0 uM
[6] = target: Alpha-2B adrenergic receptor (Homo sapiens) (UniProt P18089); conditions: Compound concentration 10.0 uM
[7] = target: 5-hydroxytryptamine receptor 7 (Homo sapiens, UniProt P34969); conditions: Compound concentration 10.0 uM
[8] = target: 5-hydroxytryptamine receptor 5A (Homo sapiens) (UniProt P47898); conditions: Compound concentration 10.0 uM
[9] = target: Alpha-1D adrenergic receptor (Homo sapiens) (UniProt P25100); conditions: Compound concentration 10.0 uM
[10] = target: T3, Sodium-dependent dopamine transporter (Homo sapiens, UniProt Q01959); conditions: Compound concentration 10.0 uM
[11] = target: Sodium-dependent serotonin transporter (Homo sapiens) (UniProt P31645); conditions: Compound concentration 10.0 uM
[12] = target: D(4) dopamine receptor (Homo sapiens) (UniProt P21917); conditions: Compound concentration 10.0 uM
[13] = target: Alpha-2C adrenergic receptor (Homo sapiens) (UniProt P18825); conditions: Compound concentration 10.0 uM
[14] = target: T4, 5-hydroxytryptamine receptor 1D (Homo sapiens, UniProt P28221); conditions: Compound concentration 10.0 uM
[15] = target: 5-hydroxytryptamine receptor 2B (Homo sapiens) (UniProt P41595); conditions: Compound concentration 10.0 uM
[16] = target: T5, Mitotic checkpoint serine/threonine-protein kinase BUB1 (Homo sapiens, UniProt O43683); test: BUB1 biochemical assay (low ATP)
[17] = target: 5-hydroxytryptamine receptor 1A (Homo sapiens) (UniProt P08908); conditions: Compound concentration 10.0 uM
[18] = target: D(1B) dopamine receptor (Homo sapiens) (UniProt P21918); conditions: Compound concentration 10.0 uM
[19] = target: T4, 5-hydroxytryptamine receptor 1D; test: GPCRScan assay: inhibition of 5-HT1D; design: radioligand conc. used [nm] 1.0 – 2.0, parental cells HEKT
[20] = target: Beta-3 adrenergic receptor (Homo sapiens) (UniProt P13945); conditions: Compound concentration 10.0 uM
[21] = target: 5-hydroxytryptamine receptor 1E (Homo sapiens) (UniProt P28566); conditions: Compound concentration 10.0 uM
[22] = target: Delta-type opioid receptor (Homo sapiens) (UniProt P41143); conditions: Compound concentration 10.0 uM
[23] = target: D(2) dopamine receptor (Homo sapiens) (UniProt P14416); conditions: Compound concentration 10.0 uM
[24] = target: 5-hydroxytryptamine receptor 2A (Homo sapiens) (UniProt P28223); conditions: Compound concentration 10.0 uM
[25] = target: D(3) dopamine receptor (Homo sapiens) (UniProt P35462); conditions: Compound concentration 10.0 uM
[26] = target: 5-hydroxytryptamine receptor 6 (Homo sapiens, UniProt P50406); test: GPCRScan assay: inhibition of 5-HT6; design: radioligand conc. used [nm] 2.0 – 4.0, parental cells stable HEK
[27] = target: T6, Sodium-dependent noradrenaline transporter (Homo sapiens, UniProt P23975); test: GPCRScan assay: inhibition of NET; design: radioligand conc. used [nm] 1.3 – 5.0, parental cells stable HEK
Rattus norvegicus = species on record: Rattus norvegicus; conditions: Compound concentration 10.0 uM
[28] = target: Histamine H1 receptor (Homo sapiens) (UniProt P35367); conditions: Compound concentration 10.0 uM
[29] = target: T6, Sodium-dependent noradrenaline transporter; conditions: Compound concentration 10.0 uM
[30] = target: Mu-type opioid receptor (Homo sapiens) (UniProt P35372); conditions: Compound concentration 10.0 uM
[31] = target: Histamine H4 receptor (Homo sapiens) (UniProt Q9H3N8); conditions: Compound concentration 10.0 uM
[32] = target: T5, Mitotic checkpoint serine/threonine-protein kinase BUB1; test: BUB1 biochemical assay (high ATP)
[33] = target: T7, Sigma intracellular receptor 2 (Homo sapiens, UniProt Q5BJF2); test: GPCRScan assay: inhibition of Sigma 2; design: radioligand conc. used [nm] 5.0, parental cells HEKT
[34] = target: Alpha-1B adrenergic receptor (Homo sapiens) (UniProt P35368); conditions: Compound concentration 10.0 uM
[35] = target: T2, Sigma non-opioid intracellular receptor 1; test: GPCRScan assay: inhibition of Sigma 1; design: radioligand conc. used [nm] 4.0 – 5.0, parental cells HEKT
[36] = target: Beta-1 adrenergic receptor (Homo sapiens) (UniProt P08588); conditions: Compound concentration 10.0 uM
[37] = target: Kappa-type opioid receptor (Homo sapiens) (UniProt P41145); conditions: Compound concentration 10.0 uM
[38] = target: 5-hydroxytryptamine receptor 1B (Homo sapiens) (UniProt P28222); conditions: Compound concentration 10.0 uM
[39] = target: T7, Sigma intracellular receptor 2; conditions: Compound concentration 10.0 uM
[40] = target: D(1A) dopamine receptor (Homo sapiens) (UniProt P21728); conditions: Compound concentration 10.0 uM
[41] = target: T3, Sodium-dependent dopamine transporter; test: GPCRScan assay: inhibition of DAT; design: radioligand conc. used [nm] 3.6 – 16.0, parental cells stable HEK
[42] = target: Histamine H2 receptor (Homo sapiens) (UniProt P25021); conditions: Compound concentration 10.0 uM
Chain of Histamine H2 receptor (Homo sapiens) (P25021 whole entry): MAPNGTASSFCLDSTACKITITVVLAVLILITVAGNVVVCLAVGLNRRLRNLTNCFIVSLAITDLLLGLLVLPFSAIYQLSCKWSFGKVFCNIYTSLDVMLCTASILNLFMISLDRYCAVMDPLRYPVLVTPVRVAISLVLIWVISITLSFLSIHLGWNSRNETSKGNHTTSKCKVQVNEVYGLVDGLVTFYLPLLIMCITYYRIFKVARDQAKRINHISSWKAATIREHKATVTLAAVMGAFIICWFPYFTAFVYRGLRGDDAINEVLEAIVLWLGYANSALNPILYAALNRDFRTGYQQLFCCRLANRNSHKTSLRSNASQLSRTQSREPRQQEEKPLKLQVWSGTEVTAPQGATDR

T3 sequence (Q01959 whole entry): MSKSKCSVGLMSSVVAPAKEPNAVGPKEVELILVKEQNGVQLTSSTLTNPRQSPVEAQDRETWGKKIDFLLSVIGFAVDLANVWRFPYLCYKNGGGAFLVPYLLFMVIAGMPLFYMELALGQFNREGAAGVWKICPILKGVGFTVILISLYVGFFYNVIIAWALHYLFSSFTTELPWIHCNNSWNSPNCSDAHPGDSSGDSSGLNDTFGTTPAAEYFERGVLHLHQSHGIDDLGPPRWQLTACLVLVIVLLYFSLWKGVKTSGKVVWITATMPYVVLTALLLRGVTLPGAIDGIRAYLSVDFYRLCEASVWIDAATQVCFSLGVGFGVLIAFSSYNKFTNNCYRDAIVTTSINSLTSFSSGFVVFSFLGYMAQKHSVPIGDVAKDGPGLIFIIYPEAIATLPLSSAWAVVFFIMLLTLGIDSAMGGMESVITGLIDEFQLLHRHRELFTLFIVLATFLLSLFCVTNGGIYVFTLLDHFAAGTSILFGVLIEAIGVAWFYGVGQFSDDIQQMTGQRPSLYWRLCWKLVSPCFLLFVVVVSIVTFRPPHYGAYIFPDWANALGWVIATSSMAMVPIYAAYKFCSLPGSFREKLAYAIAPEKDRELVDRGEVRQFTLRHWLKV
T5 sequence (O43683 whole entry): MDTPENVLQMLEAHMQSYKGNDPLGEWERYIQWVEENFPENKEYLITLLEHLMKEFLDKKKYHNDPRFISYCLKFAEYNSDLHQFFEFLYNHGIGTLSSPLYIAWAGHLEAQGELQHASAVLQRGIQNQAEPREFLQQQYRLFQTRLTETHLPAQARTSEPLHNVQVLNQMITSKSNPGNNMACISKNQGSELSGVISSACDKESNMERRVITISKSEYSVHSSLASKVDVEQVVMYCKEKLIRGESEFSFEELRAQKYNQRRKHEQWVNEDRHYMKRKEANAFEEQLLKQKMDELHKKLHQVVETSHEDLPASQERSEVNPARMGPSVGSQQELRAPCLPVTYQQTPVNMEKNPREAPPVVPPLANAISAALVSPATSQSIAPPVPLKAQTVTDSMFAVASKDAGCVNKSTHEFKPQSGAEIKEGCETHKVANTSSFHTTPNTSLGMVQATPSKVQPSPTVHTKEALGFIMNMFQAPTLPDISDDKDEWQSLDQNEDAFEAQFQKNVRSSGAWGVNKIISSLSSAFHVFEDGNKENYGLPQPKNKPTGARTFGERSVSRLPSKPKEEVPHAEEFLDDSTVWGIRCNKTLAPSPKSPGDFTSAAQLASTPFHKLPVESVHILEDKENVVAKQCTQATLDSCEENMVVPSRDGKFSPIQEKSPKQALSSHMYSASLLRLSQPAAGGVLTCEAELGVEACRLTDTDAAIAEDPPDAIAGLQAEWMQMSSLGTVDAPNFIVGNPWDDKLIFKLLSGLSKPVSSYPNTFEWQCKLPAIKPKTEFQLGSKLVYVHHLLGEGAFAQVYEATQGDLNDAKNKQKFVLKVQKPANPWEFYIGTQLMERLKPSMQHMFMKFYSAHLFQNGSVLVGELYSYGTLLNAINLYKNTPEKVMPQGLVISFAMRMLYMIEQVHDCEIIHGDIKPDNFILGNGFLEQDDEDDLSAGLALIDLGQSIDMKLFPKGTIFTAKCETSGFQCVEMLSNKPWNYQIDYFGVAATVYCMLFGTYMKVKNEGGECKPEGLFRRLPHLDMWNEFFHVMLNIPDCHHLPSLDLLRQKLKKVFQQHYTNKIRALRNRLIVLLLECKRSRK
T7 sequence (Q5BJF2 whole entry): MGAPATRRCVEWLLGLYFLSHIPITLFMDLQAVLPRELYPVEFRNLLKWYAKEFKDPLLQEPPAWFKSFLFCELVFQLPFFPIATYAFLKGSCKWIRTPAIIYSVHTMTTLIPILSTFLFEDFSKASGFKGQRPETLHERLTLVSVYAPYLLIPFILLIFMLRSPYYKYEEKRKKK
Chain of 5-hydroxytryptamine receptor 6 (P50406 whole entry): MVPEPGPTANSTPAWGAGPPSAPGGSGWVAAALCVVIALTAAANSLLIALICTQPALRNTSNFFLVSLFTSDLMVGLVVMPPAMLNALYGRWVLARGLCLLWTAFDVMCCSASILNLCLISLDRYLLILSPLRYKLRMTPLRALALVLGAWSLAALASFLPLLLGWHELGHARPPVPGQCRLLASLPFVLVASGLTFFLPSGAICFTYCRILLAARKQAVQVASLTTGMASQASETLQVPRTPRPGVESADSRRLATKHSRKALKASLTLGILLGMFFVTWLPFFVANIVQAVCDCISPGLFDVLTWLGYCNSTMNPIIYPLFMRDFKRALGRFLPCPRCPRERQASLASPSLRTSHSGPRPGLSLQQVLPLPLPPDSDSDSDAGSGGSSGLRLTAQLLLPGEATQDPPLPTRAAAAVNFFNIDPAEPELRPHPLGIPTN
T4 sequence (P28221 whole entry): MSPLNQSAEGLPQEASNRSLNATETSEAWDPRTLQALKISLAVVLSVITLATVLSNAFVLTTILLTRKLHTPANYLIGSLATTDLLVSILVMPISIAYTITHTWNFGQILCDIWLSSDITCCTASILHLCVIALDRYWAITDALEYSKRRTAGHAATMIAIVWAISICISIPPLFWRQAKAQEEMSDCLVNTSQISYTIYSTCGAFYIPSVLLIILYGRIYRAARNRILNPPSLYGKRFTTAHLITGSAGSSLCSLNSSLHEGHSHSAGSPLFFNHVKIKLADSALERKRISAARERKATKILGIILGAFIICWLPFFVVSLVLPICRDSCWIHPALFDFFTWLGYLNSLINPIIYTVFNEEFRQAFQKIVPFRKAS
T6 sequence (P23975 whole entry): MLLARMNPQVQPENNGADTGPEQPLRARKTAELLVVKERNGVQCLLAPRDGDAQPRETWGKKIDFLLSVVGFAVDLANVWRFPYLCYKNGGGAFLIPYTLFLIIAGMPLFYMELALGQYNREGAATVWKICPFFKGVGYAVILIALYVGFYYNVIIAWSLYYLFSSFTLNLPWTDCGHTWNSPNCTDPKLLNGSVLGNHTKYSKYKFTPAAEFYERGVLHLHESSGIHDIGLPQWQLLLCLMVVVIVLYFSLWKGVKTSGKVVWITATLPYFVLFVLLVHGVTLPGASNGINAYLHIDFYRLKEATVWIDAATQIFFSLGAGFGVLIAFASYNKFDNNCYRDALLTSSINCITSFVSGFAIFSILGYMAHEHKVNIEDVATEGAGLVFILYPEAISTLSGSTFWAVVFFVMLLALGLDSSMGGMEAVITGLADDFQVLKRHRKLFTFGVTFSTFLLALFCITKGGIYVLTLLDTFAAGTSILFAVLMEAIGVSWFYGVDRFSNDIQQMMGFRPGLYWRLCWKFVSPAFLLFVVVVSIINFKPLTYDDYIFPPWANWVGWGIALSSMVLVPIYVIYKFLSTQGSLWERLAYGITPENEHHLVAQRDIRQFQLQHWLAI
T2 sequence (Q99720 whole entry): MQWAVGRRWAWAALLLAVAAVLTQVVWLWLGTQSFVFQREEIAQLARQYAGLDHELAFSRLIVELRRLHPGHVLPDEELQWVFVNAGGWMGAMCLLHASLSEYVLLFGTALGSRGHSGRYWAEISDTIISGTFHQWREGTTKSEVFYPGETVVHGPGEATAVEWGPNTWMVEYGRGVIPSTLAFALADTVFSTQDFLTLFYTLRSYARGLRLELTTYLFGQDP
Chain of Sodium-dependent serotonin transporter (Homo sapiens) (P31645 whole entry, looked up): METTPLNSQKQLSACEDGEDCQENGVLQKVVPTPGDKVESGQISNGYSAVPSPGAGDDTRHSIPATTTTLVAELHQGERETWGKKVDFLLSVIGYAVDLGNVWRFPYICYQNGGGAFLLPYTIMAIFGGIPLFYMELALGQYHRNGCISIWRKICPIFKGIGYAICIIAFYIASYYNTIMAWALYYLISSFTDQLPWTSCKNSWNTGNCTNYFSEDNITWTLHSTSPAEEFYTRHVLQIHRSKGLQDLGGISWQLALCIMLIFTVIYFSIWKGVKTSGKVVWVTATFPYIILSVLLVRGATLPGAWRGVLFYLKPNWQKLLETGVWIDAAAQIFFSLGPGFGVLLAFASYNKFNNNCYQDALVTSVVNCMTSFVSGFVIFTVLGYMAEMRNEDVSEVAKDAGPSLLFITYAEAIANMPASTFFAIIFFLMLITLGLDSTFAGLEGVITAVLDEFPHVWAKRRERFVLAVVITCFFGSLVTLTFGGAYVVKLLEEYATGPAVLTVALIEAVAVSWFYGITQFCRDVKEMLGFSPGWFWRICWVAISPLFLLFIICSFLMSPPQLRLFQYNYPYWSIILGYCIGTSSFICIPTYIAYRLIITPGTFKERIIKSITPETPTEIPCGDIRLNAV
Chain of Alpha-2C adrenergic receptor (Homo sapiens) (P18825 whole entry): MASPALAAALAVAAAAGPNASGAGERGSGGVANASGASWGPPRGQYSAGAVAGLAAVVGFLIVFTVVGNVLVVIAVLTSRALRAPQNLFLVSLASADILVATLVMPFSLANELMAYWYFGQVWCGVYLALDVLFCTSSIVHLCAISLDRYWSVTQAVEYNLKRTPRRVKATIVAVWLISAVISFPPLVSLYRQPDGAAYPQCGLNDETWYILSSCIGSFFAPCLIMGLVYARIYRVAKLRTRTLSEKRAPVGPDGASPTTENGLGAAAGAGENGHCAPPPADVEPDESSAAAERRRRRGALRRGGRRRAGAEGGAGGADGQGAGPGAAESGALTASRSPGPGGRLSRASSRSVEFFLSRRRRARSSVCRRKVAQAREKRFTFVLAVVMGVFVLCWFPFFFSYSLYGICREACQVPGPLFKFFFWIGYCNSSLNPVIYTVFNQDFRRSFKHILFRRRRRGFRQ

inhibition [1]: -3.97%
inhibition [2]: 9.26%
inhibition [3]: 28.9%
inhibition [4]: -6.1%
inhibition [5]: 52.2%
inhibition [6]: 27.6%
inhibition [7]: -3.39%
inhibition [8]: 3.77%
inhibition [9]: 12.9%
inhibition [10]: 82.8%
inhibition [11]: 10.9%
inhibition [12]: 24.9%
inhibition [13]: 12.9%
inhibition [14]: 55.1%
inhibition [15]: -3.83%
IC50 [16]: 1.7 µM (not active)
inhibition [17]: 12.3%
inhibition [18]: 26.8%
Ki [19]: 8.97 µM
inhibition [20]: 33.6%
inhibition [21]: -3.71%
inhibition [22]: -9.55%
inhibition [23]: 21.8%
inhibition [24]: 6.5%
inhibition [25]: 20%
Ki [26]: > 10 µM
pKi [26]: < 5
Ki [27]: 2.74 µM
inhibition (Rattus norvegicus): 13.9%
inhibition [28]: 20.3%
inhibition [29]: 58.7%
inhibition [30]: -9.7%
inhibition [31]: 27.8%
IC50 [32]: > 20 µM (not active)
Ki [33]: 0.655 µM
inhibition [34]: -4.46%
Ki [35]: 1.34 µM
inhibition [36]: 1.17%
inhibition [37]: 17.5%
inhibition [38]: 33.8%
inhibition [39]: 69.2%
inhibition [40]: 41.3%
Ki ([41]; read-out: Ki): 1.63 µM
Ki ([41]; read-out: pKi (converted)): 1.62 µM
inhibition [42]: 28.7%
SMILES: COc1ccccc1Nc1nc(-c2nn(Cc3c(F)cc(OCCCO)cc3F)c3ccccc23)ncc1OC
